Reference: PubChem BioAssay (NCI)
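Cultured in 96-well plates, cells were exposed to test compound for 48 hours across five concentrations. TGI: concentration producing complete growth inhibition.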

What was measured:
Experiment in all cases: growth of human tumour cells (NCI), 48 h
[1] = tested on: RXF 393 renal
[2] = tested on: IGROV1 ovarian
[3] = tested on: KM12 colon
[4] = tested on: OVCAR-4 ovarian
[5] = tested on: SR leukemia
[6] = tested on: K-562 leukemia
[7] = tested on: UACC-257 melanoma
[8] = tested on: MCF7 breast
[9] = tested on: CCRF-CEM leukemia
[10] = tested on: HL-60(TB) leukemia
[11] = tested on: RPMI-8226 leukemia
[12] = tested on: MALME-3M melanoma
[13] = tested on: ACHN renal
[14] = tested on: BT-549 breast
[15] = tested on: UO-31 renal
[16] = tested on: A549 NSCLC
[17] = tested on: OVCAR-5 ovarian
[18] = tested on: OVCAR-8 ovarian
[19] = tested on: HOP-62 NSCLC
[20] = tested on: SK-MEL-2 melanoma

Question: What does the source list for `NC1CNC(=O)c2cscc21` (centres undefined)?
Answer: TGI [1]: > 100 µM; TGI [2]: > 100 µM; TGI [3]: > 100 µM; TGI [4]: > 100 µM; TGI [5]: > 100 µM; TGI [6]: > 100 µM; TGI [7]: > 100 µM; TGI [8]: > 100 µM; TGI [9]: > 100 µM; TGI [10]: > 100 µM; TGI [11]: > 100 µM; TGI [12]: > 100 µM; TGI [13]: > 100 µM; TGI [14]: > 100 µM; TGI [15]: > 100 µM; TGI [16]: > 100 µM; TGI [17]: > 100 µM

Question: How did the TGI [1] turn out when `CN(C)C(=C1c2cc([N+](=O)[O-])ccc2-c2ccc([N+](=O)[O-])cc21)N(C)C` was run?
Answer: > 100 µM

Question: And the TGI [2]?
Answer: > 100 µM

Question: What about the TGI [3] of the same compound?
Answer: > 100 µM

Question: What about the TGI [4] of the same compound?
Answer: > 100 µM

Question: And the TGI [18]?
Answer: > 100 µM

Question: What about the TGI [6] of the same compound?
Answer: > 100 µM

Question: What about the TGI [7] of the same compound?
Answer: > 100 µM

Question: And the TGI [8]?
Answer: > 100 µM

Question: What about the TGI [19] of the same compound?
Answer: > 100 µM

Question: And the TGI [9]?
Answer: > 100 µM

Question: And the TGI [20]?
Answer: > 100 µM

Question: What about the TGI [11] of the same compound?
Answer: 25.3 µM

Question: What about the TGI [12] of the same compound?
Answer: > 100 µM

Question: What about the TGI [13] of the same compound?
Answer: > 100 µM

Question: And the TGI [14]?
Answer: > 100 µM

Question: What about the TGI [15] of the same compound?
Answer: > 100 µM

Question: What about the TGI [16] of the same compound?
Answer: > 100 µM

Question: What about the TGI [17] of the same compound?
Answer: > 100 µM

Question: Which results are given for `O=C(O)C/C(=C\c1ccccc1)C(=O)O`?
Answer: TGI [1]: > 100 µM; TGI [2]: > 100 µM; TGI [3]: > 100 µM; TGI [4]: > 100 µM; TGI [18]: > 100 µM; TGI [6]: 93.5 µM; TGI [7]: > 100 µM; TGI [8]: > 100 µM; TGI [19]: > 100 µM; TGI [9]: > 100 µM; TGI [20]: > 100 µM; TGI [10]: > 100 µM; TGI [11]: > 100 µM; TGI [12]: > 100 µM; TGI [13]: > 100 µM; TGI [14]: > 100 µM; TGI [15]: > 100 µM; TGI [16]: > 100 µM; TGI [17]: > 100 µM

Question: Which results are given for `CO[C@@H](c1ccccc1)[C@H](O)[C@](O)(c1ccccc1)P(=O)(OC)OC`?
Answer: TGI [1]: > 100 µM; TGI [2]: > 100 µM; TGI [3]: > 100 µM; TGI [4]: > 100 µM; TGI [5]: > 100 µM; TGI [18]: > 100 µM; TGI [6]: > 100 µM; TGI [7]: > 100 µM; TGI [9]: > 100 µM; TGI [20]: > 100 µM; TGI [10]: > 100 µM; TGI [11]: > 100 µM; TGI [12]: > 100 µM; TGI [13]: > 100 µM; TGI [14]: > 100 µM; TGI [15]: > 100 µM; TGI [16]: > 100 µM; TGI [17]: > 100 µM

Question: How did the TGI [1] turn out when `Cn1c(COC(=O)NC2CCCCC2)c(COC(=O)NC2CCCCC2)c2ccc3cc(Cl)c(Cl)cc3c21` was run?
Answer: 21.4 µM

Question: What about the TGI [2] of the same compound?
Answer: 39.1 µM

Question: What about the TGI [3] of the same compound?
Answer: 36.4 µM

Question: What about the TGI [18] of the same compound?
Answer: > 100 µM

Question: What about the TGI [6] of the same compound?
Answer: 15.7 µM

Question: And the TGI [7]?
Answer: 29 µM

Question: What about the TGI [8] of the same compound?
Answer: 16.9 µM

Question: What about the TGI [9] of the same compound?
Answer: 11.3 µM

Question: What about the TGI [20] of the same compound?
Answer: 28.5 µM

Question: What about the TGI [10] of the same compound?
Answer: 26.4 µM

Question: What about the TGI [12] of the same compound?
Answer: 25.9 µM

Question: What about the TGI [13] of the same compound?
Answer: 32.3 µM

Question: What about the TGI [14] of the same compound?
Answer: 30.5 µM

Question: What about the TGI [15] of the same compound?
Answer: 66.7 µM

Question: And the TGI [16]?
Answer: > 100 µM

Question: And the TGI [17]?
Answer: 34.5 µM

Question: For `N#Cc1c2c([nH]c(=O)c1C#N)CCCC2`, which TGI [1] is on record?
Answer: > 100 µM

Question: What about the TGI [2] of the same compound?
Answer: > 100 µM

Question: And the TGI [3]?
Answer: > 100 µM

Question: And the TGI [18]?
Answer: > 100 µM

Question: What about the TGI [6] of the same compound?
Answer: > 100 µM

Question: What about the TGI [7] of the same compound?
Answer: > 100 µM

Question: And the TGI [8]?
Answer: > 100 µM

Question: What about the TGI [9] of the same compound?
Answer: > 100 µM

Question: And the TGI [20]?
Answer: > 100 µM

Question: What about the TGI [10] of the same compound?
Answer: > 100 µM

Question: What about the TGI [12] of the same compound?
Answer: > 100 µM

Question: What about the TGI [13] of the same compound?
Answer: > 100 µM

Question: And the TGI [14]?
Answer: > 100 µM

Question: And the TGI [15]?
Answer: > 100 µM

Question: What about the TGI [16] of the same compound?
Answer: > 100 µM

Question: What about the TGI [17] of the same compound?
Answer: > 100 µM
